The results in this text go back to publication PMC12677653, “Inhibition of Tumor Lipogenesis and Growth by Peptide‐Based Targeting of SREBP Activation” (Advanced Science, 2025).

The test system of assay [1] is Hep3B cells. Kind of assay: Cell proliferation, Hep3B. The settings on record: peptide 25 μM 1 h, IGF1 100 ng/mL 72 h, automated cell counting, n = 3. The format is cell-based, human. The procedure:
(§1) Cells were seeded in 96‐well plates at a density of 5000 cells per well in 100 µL complete growth medium. Following a 24‐hour incubation period (37 °C, 5% CO2) to permit cell adherence, the culture medium was replaced with fresh low serum contained complete medium containing either Insig1/2 loop1 peptide (0–100 µM concentration range) or PBS. Cells were maintained under these conditions for 72 hours. After treatment, the culture medium was carefully aspirated, and cells were washed twice with 200 µL phosphate‐buffered saline (PBS, pH 7.4). Fixed was performed using 4% paraformaldehyde (100 µL/well) for 15 min at room temperature, followed by three PBS washes (200 µL/well) to remove residual fixative. 0.1% (w/v) crystal violet staining solution was prepared by dissolving crystal violet powder in 10% ethanol, followed by filtration through a 0.22 µm membrane. Each well received 80 µL of staining solution and was incubated for 15 min at room temperature, protected from light. […] Plates were agitated at 200 rpm for 10 min to ensure complete dissolution before measuring absorbance at 582 nm using a microplate reader. […]
g) Cell proliferation was assessed by automated cell counting after 72 h of IGF1 stimulation (100 ng ml⁻¹) in Hep3B cells pretreated with Insig1/2 loop 1 peptide (25 μM) for 1 h.

In assay [2] the test system is HCT116 human colon cancer cells. Kind of assay: Cell proliferation / cell death, HCT116. The format is cell-based. The settings on record: concentration gradient of peptide, OD measurement (Figure S1i). The procedure: as §1
i-k) (i) HCT116, (j) Huh7, and (k) Hep3B cells were exposed to a concentration gradient of Insig1/2 loop1 peptide, and cell proliferation was quantified by optical density (OD) measurements.

Assay [3] deals with Insig1 pS207/Insig2 pS151, SREBP1, Ki67. Description: IHC analysis of mouse tumors derived from Huh7 cells. It is filed as in vivo, BALB/c athymic nude mice. The settings on record: peptide given as LNP@Insig1/2 loop 1 peptide 10 mg/kg iv, lenvatinib mesylate 2 mg/kg oral. The procedure: (§2) Representative micrographs are shown (scale bar: 20 µm). b,c) Cryosections of mouse tumor tissues were prepared for histological analysis. (b) Lipid accumulation was assessed by Oil Red O staining. Representative micrographs are shown (scale bar: 20 µm). (c) Apoptotic cells were detected by TUNEL assay. Representative micrographs are shown (scale bar: 20 µm). d,e) Quantitative analysis of (d) apoptotic areas (TUNEL‐positive regions) and (e) lipid droplet counts (Oil Red O‐positive particles) was performed. Data represent the mean ± SD (n = 4). Statistical significance was determined by one‐way analysis of variance (ANOVA). ** p < 0.01, **** p < 0.0001, ns, no significance.
As described previously,^[ [39] ^] IHC staining was performed using the Vectastain ABC kit (Vector Laboratories) according to the manufacturer's instructions. Sections of paraffin‐embedded xenograft tumors were stained with antibodies against Ki67, SREBP1, Insig1 pS207/Insig2 pS151, and nonspecific IgG was used as a negative control. Paraffin‐embedded human liver tumor sections were stained with antibodies against Ki67, SREBP1, Insig1 pS207/Insig2 pS151, with nonspecific IgG as a negative control. The tissue sections were quantitatively scored according to the percentage of positive cells and staining intensity. […] The intensity of staining was rated on a scale of 0 to 3: 0, negative; 1, weak; 2, moderate; and 3, strong. The study then combined the proportion and intensity scores to obtain a total score (range, 0–8).

Assay [4] concerns Insig1 S207/Insig2 S151 phosphorylation. Description: Immunoblot of Insig1 S207/Insig2 S151 phosphorylation, Hep3B. The format is cell-based, human. The settings on record: Hep3B cells, peptide 7.5 or 15 μM 1 h before IGF1 100 ng/mL. The procedure:
(§3) Cellular proteins were extracted using ice‐cold lysis buffer [50 mM Tris‐HCl (pH 7.5), 150 mM NaCl, 0.1% SDS, 1% Triton X‐100, 1 mM DTT, 0.5 mM EDTA] supplemented with protease inhibitor cocktail (Roche) and phosphatase inhibitors (Bimake). Following lysis, cell extracts were centrifuged at 13400 × g for 15 min at 4 °C to remove cellular debris. The clarified supernatants were then incubated with primary antibodies overnight at 4 °C with gentle rotation. For Flag‐tagged protein immunoprecipitation, Flag M2 magnetic beads (Sigma) were added to the lysate‐antibody mixture and incubated for an additional 4 h at 4 °C. The immunocomplexes were washed three times with lysis buffer under stringent conditions (5 min per wash with rotation). Finally, the precipitated proteins were eluted and analyzed by immunoblotting as previously described.^[ [35] ^]
e) Hep3B cells were pretreated with low (7.5 μM) or high (15 μM) concentrations of Insig1/2 loop 1 peptide for 1 h before IGF1 (100 ng ml⁻¹) stimulation.

The subject of assay [5] is tumor cell apoptosis. Kind of assay: TUNEL assay of tumor tissues. The settings on record: cryosections of Huh7 tumors, n = 4; peptide given as LNP 10 mg/kg iv; lenvatinib mesylate 2 mg/kg oral. It is filed as in vivo, BALB/c athymic nude mice. The procedure:
as §2
Mouse tumor tissues were sectioned at 5 µm thickness. Apoptotic cells were counted using the colorimetric TUNEL System (Beyotime, C1091) according to the manufacturer's instructions. The total numbers of apoptotic cells were counted in six high‐power fields and presented as an average number of apoptotic cells per high‐power fields.

Assay [6] deals with Insig1 S207 phosphorylation. Description: Immunoblot of Insig1 S207 phosphorylation, HCT116. The format is cell-based, human. The settings on record: HCT116 cells, peptide 15 μM 1 h before IGF1 100 ng/mL. The procedure:
as §3
h) HCT116 cells were pretreated with Insig1/2 loop1 peptide (15 μM) for 1 h before IGF1 (100 ng ml⁻¹) stimulation.

Turning to “RKKRRQRRRLYPCIDSHLGEPHKFKRE [Insig1/2 loop 1 peptide]”, the “IGF1-induced increase in proliferation” value in assay [1] is listed as “inhibited”. For the same sequence, the cell death entry in assay [2] is reported as “induced cell death”. Also, in assay [3], the “Insig1 S207/Insig2 S151 phosphorylation in tumors” value was “reduced”; the “Ki67 expression in tumors” value is “reduced”; the “SREBP1 expression and nuclear accumulation in tumors” value is “reduced”. Further, in assay [4], the “Insig1 S207/Insig2 S151 phosphorylation” value is reported as “markedly inhibited”. For the same sequence, the “cell apoptosis in tumor tissues (TUNEL)” value in assay [5] was “induced cell apoptosis in tumor tissues”. In assay [6], the “Insig1 S207 phosphorylation” value was “inhibited”.
